In paper PMC8302244 (CPT: Pharmacometrics & Systems Pharmacology, 2021):

Legend:
[1] = cited from earlier work
CYP3A4 mRNA = conditions: primary human hepatocytes, up to 300 μM; ref unpublished data on file; cited from earlier work
[2] = Semimechanistic population PK model
[3] = Predicted individual exposure metrics
[4] = system: human cell lines derived from NC, SCLC, CRPC, TNBC, ER+BC and GIST; conditions: cited from earlier work
[5] = final model Run 32, power estimate of covariate effect
[6] = Besylate substudy—80 mg q.d., W1D1
[7] = Besylate substudy—80 mg q.d., W3D4

Structure (SMILES): COc1ccc2c(c1)C(c1ccc(Cl)cc1)=N[C@@H](CC(N)=O)c1nnc(C)n1-2 [GSK3529246]
- free fraction in plasma [1]: approximately 0.2
- donors with concentration‐dependent increase in CYP3A4 mRNA (CYP3A4 mRNA): one donor
- GSK3529246 central volume of distribution mV1/F ([2]; final model Run 32): 62.1 L
- GSK3529246 clearance mCL/F ([2]; final model Run 32): 12.8 L/h
- GSK3529246 transit rate mka ([2]; final model Run 32): 11.5 h⁻¹
- AST effect on mCL/F [2, 5]: −0.194
- Weight effect on V1/F and mV1/F [2, 5]: 0.717
- IIV on GSK3529246 transit rate ωmka2 ([2]; final model Run 32, variance): 0.488
- AUC0–24 Mean [3, 6]: 3110.0 ng/mL
- Cmax Mean [3, 6]: 316.0 ng/mL
- Cmin Mean [3, 6]: 34.7 ng/mL
- AUC0–24 Mean [3, 7]: 5890.0 ng/mL
- Cmax Mean [3, 7]: 469.0 ng/mL
- Cmin Mean [3, 7]: 89.6 ng/mL
- AUC0–24 Mean ([3]; Part 1—40 mg b.i.d., W1D1): 1860.0 ng/mL
- Cmax Mean ([3]; Part 1—40 mg b.i.d., W1D1): 222.0 ng/mL
- Cmin Mean ([3]; Part 1—40 mg b.i.d., W1D1): 94.5 ng/mL
- AUC0–24 Mean ([3]; Part 1—40 mg b.i.d., W3D4): 5810.0 ng/mL
- Cmax Mean ([3]; Part 1—40 mg b.i.d., W3D4): 365.0 ng/mL
- Cmin Mean ([3]; Part 1—40 mg b.i.d., W3D4): 128.0 ng/mL
- AUC0–24 Mean ([3]; Part 1—60 mg q.d., W1D1): 2640.0 ng/mL
- Cmax Mean ([3]; Part 1—60 mg q.d., W1D1): 296.0 ng/mL
- Cmin Mean ([3]; Part 1—60 mg q.d., W1D1): 21.3 ng/mL
- AUC0–24 Mean ([3]; Part 1—60 mg q.d., W3D4): 4240.0 ng/mL
- Cmax Mean ([3]; Part 1—60 mg q.d., W3D4): 379.0 ng/mL
- Cmin Mean ([3]; Part 1—60 mg q.d., W3D4): 57.7 ng/mL
- AUC0–24 Mean ([3]; Part 1—80 mg q.d., W1D1): 3230.0 ng/mL
- Cmax Mean ([3]; Part 1—80 mg q.d., W1D1): 355.0 ng/mL
- Cmin Mean ([3]; Part 1—80 mg q.d., W1D1): 65.8 ng/mL
- AUC0–24 Mean ([3]; Part 1—80 mg q.d., W3D4): 4730.0 ng/mL
- Cmax Mean ([3]; Part 1—80 mg q.d., W3D4): 448.0 ng/mL
- Cmin Mean ([3]; Part 1—80 mg q.d., W3D4): 66.1 ng/mL
- AUC0–24 Mean ([3]; Part 1—100 mg q.d., W1D1): 3910.0 ng/mL
- Cmax Mean ([3]; Part 1—100 mg q.d., W1D1): 383.0 ng/mL
- Cmin Mean ([3]; Part 1—100 mg q.d., W1D1): 46.8 ng/mL
- AUC0–24 Mean ([3]; Part 1—100 mg q.d., W3D4): 6970.0 ng/mL
- Cmax Mean ([3]; Part 1—100 mg q.d., W3D4): 567.0 ng/mL
- Cmin Mean ([3]; Part 1—100 mg q.d., W3D4): 120.0 ng/mL
- AUC0–24 Mean ([3]; Part 2—75 mg q.d., W1D1): 2720.0 ng/mL
- Cmax Mean ([3]; Part 2—75 mg q.d., W1D1): 325.0 ng/mL
- Cmin Mean ([3]; Part 2—75 mg q.d., W1D1): 57.5 ng/mL
- AUC0–24 Mean ([3]; Part 2—75 mg q.d., W3D4): 5010.0 ng/mL
- Cmax Mean ([3]; Part 2—75 mg q.d., W3D4): 431.0 ng/mL
- Cmin Mean ([3]; Part 2—75 mg q.d., W3D4): 82.7 ng/mL

Structure (SMILES): CCNC(=O)C[C@@H]1N=C(c2ccc(Cl)cc2)c2cc(OC)ccc2-n2c(C)nnc21 [Molibresib]
- proliferation of human cancer cell lines [4]: inhibits the proliferation
